From US20240270741A1 (Cogent Biosciences, Inc., priority 2023, published 2024) come the findings set out here.

The target in this experiment is FGFR2 (Homo sapiens, UniProt P21802). In words: FGFR wild type enzyme assay (HTRF KinEASE-TK), FGFR2. Particulars: Enz FGFR2 (nM), FGFR2 wild type enzyme.
Sequence of FGFR2 (P21802 399-821 limits assumed): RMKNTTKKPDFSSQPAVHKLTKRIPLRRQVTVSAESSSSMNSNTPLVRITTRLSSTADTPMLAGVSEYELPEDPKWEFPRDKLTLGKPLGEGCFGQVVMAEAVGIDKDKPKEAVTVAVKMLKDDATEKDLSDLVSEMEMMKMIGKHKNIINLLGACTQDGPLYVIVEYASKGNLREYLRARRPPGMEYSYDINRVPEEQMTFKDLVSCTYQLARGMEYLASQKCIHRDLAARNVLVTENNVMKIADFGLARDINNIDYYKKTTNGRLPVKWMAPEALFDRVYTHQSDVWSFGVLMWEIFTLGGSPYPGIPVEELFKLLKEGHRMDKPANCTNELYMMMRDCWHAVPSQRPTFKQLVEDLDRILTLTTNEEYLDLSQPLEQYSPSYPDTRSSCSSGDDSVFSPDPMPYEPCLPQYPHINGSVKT
Compound `Cc1c(-c2cc(Sc3ncccc3F)c3c(C#N)cnn3c2)cnn1C1CCN(C[C@H](C)O)CC1` [Example 144, (S)-4-((3-fluoropyridin-2-yl)thio)-6-(1-(1-(2-hydroxypropyl)piperidin-4-yl)-5-methyl-1H-pyrazol-4-yl)pyrazolo[1,5-a]pyridine-3-carbonitrile] displayed an IC50 of 1.5 nM. Compound `Cc1c(-c2cc(Sc3c(F)cc(F)cc3C#N)c3c(C#N)cnn3c2)cnn1C1CCNCC1` [Example 145, 4-((2-cyano-4,6-difluorophenyl)thio)-6-(5-methyl-1-(piperidin-4-yl)-1H-pyrazol-4-yl)pyrazolo[1,5-a]pyridine-3-carbonitrile] gave an IC50 of 7 nM. In the case of `Cc1c(-c2cc(Sc3ncccc3F)c3c(C#N)cnn3c2)cnn1C1CCN([C@@H](C)CO)CC1` [Example 146, (S)-4-((3-fluoropyridin-2-yl)thio)-6-(1-(1-(1-hydroxypropan-2-yl)piperidin-4-yl)-5-methyl-1H-pyrazol-4-yl)pyrazolo[1,5-a]pyridine-3-carbonitrile] it was 2 nM; in that of `Cc1c(-c2cc(Sc3ncccc3F)c3c(C#N)cnn3c2)cnn1C1CCN([C@H](C)CO)CC1` [Example 147, (R)-4-((3-fluoropyridin-2-yl)thio)-6-(1-(1-(1-hydroxypropan-2-yl)piperidin-4-yl)-5-methyl-1H-pyrazol-4-yl)pyrazolo[1,5-a]pyridine-3-carbonitrile], 2 nM; in that of `CO[C@H](C)CN1CCC(n2ncc(-c3cc(Sc4ncccc4F)c4c(C#N)cnn4c3)c2C)CC1` [Example 148, (R)-4-((3-fluoropyridin-2-yl)thio)-6-(1-(1-(2-methoxypropyl)piperidin-4-yl)-5-methyl-1H-pyrazol-4-yl)pyrazolo[1,5-a]pyridine-3-carbonitrile], 2 nM. `CO[C@@H](C)CN1CCC(n2ncc(-c3cc(Sc4ncccc4F)c4c(C#N)cnn4c3)c2C)CC1` [Example 149, (S)-4-((3-fluoropyridin-2-yl)thio)-6-(1-(1-(2-methoxypropyl)piperidin-4-yl)-5-methyl-1H-pyrazol-4-yl)pyrazolo[1,5-a]pyridine-3-carbonitrile]: the IC50 came to 2 nM. In the case of `Cc1c(-c2cc(Sc3ncccc3F)c3c(C#N)cnn3c2)cnn1C[C@@H]1CCCNC1` [Example 150, (R)-4-((3-fluoropyridin-2-yl)thio)-6-(5-methyl-1-(piperidin-3-ylmethyl)-1H-pyrazol-4-yl)pyrazolo[1,5-a]pyridine-3-carbonitrile] it was 4 nM; in that of `Cc1c(-c2cc(Sc3c(F)cc(F)cc3C#N)c3c(C#N)cnn3c2)cnn1C1CCN(C)CC1` [Example 151], 2 nM; in that of `CC(=O)N1CCC(n2ncc(-c3cc(Sc4ncccc4F)c4c(C#N)cnn4c3)c2C)CC1` [Example 152, 6-(1-(1-acetylpiperidin-4-yl)-5-methyl-1H-pyrazol-4-yl)-4-((3-fluoropyridin-2-yl)thio)pyrazolo[1,5-a]pyridine-3-carbonitrile], 2 nM. With `Cc1c(-c2cc(Sc3ncccc3F)c3c(C#N)cnn3c2)cnn1C1CCN(S(C)(=O)=O)CC1` [Example 153, 4-[(3-fluoro-2-pyridyl)sulfanyl]-6-[5-methyl-1-(1-methylsulfonyl-4-piperidyl)pyrazol-4-yl]pyrazolo[1,5-a]pyridine-3-carbonitrile], the half-maximal inhibitory concentration (IC50) worked out at 2 nM. This lies in the single-digit nanomolar range.

For the compound `Cc1c(-c2cc(Sc3ncccc3F)c3c(C#N)cnn3c2)cnn1[C@H]1CCNC[C@@H]1F` [Example 154, 6-[1-[(3S,4S)-3-fluoro-4-piperidyl]-5-methyl-pyrazol-4-yl]-4-[(3-fluoro-2-pyridyl)sulfanyl]pyrazolo[1,5-a]pyridine-3-carbonitrile], the IC50 amounted to 2 nM. Compound `CO[C@@H](C)CN1CCC(n2ncc(-c3cc(Sc4ccccc4C#N)c4c(C#N)cnn4c3)c2C)CC1` [Example 157, (S)-4-((2-cyanophenyl)thio)-6-(1-(1-(2-methoxypropyl)piperidin-4-yl)-5-methyl-1H-pyrazol-4-yl)pyrazolo[1,5-a]pyridine-3-carbonitrile] displayed an IC50 of 1 nM. Then `COCC(C)N1CCC(n2ncc(-c3cc(Sc4ncccc4F)c4c(C#N)cnn4c3)c2C)CC1` (stereo not shown) [Example 158, 4-((3-fluoropyridin-2-yl)thio)-6-(1-(1-(1-methoxypropan-2-yl)piperidin-4-yl)-5-methyl-1H-pyrazol-4-yl)pyrazolo[1,5-a]pyridine-3-carbonitrile], with 2 nM.

The compound `Cc1c(-c2cc(Sc3ccccc3C#N)c3c(C#N)cnn3c2)cnn1C1CCC(N(C)C)CC1` (stereo not shown) [Example 159] had a half-inhibitory concentration (IC50) of 0.5 nM. Compared with the last compound, the IC50 is about 4-fold lower.

In turn, `Cc1c(-c2cc(Sc3ncccc3F)c3c(C#N)cnn3c2)cnn1[C@@H](C)C1CCN(C)CC1` [Example 160, (S)-4-((3-fluoropyridin-2-yl)thio)-6-(5-methyl-1-(1-(1-methylpiperidin-4-yl)ethyl)-1H-pyrazol-4-yl)pyrazolo[1,5-a]pyridine-3-carbonitrile] had an IC50 of 2 nM. `Cc1c(-c2cc(Sc3ncccc3F)c3c(C#N)cnn3c2)cnn1[C@@H](C)C1CCNCC1` [Example 161, 4-[(3-fluoro-2-pyridyl)sulfanyl]-6-[5-methyl-1-[(1S)-1-(4-piperidyl)ethyl]pyrazol-4-yl]pyrazolo[1,5-a]pyridine-3-carbonitrile] registered an IC50 of 2 nM. `Cc1c(-c2cc(Sc3ncccc3F)c3c(C#N)cnn3c2)cnn1C1CC2(CCNCC2)C1` [Example 162, 4-((3-fluoropyridin-2-yl)thio)-6-(5-methyl-1-(7-azaspiro[3.5]nonan-2-yl)-1H-pyrazol-4-yl)pyrazolo[1,5-a]pyridine-3-carbonitrile] returned an IC50 of 1 nM. Against the preceding compound, the IC50 is about 2-fold lower. In turn, `Cc1c(-c2cc(Sc3ncccc3F)c3c(C#N)cnn3c2)cnn1C1CCN(C(=O)CO)CC1` [Example 163, 4-((3-fluoropyridin-2-yl)thio)-6-(1-(1-(2-hydroxyacetyl)piperidin-4-yl)-5-methyl-1H-pyrazol-4-yl)pyrazolo[1,5-a]pyridine-3-carbonitrile] registered an IC50 of 3 nM. In the case of `CC(=O)N1CCC(n2ncc(-c3cc(Sc4ncc(F)cc4F)c4c(C#N)cnn4c3)c2C)CC1` [Example 164, 6-(1-(1-acetylpiperidin-4-yl)-5-methyl-1H-pyrazol-4-yl)-4-((3,5-difluoropyridin-2-yl)thio)pyrazolo[1,5-a]pyridine-3-carbonitrile] it was 5 nM; in that of `Cc1c(-c2cc(Sc3ncccc3F)c3c(C#N)cnn3c2)cnn1[C@H]1CCCN(S(C)(=O)=O)C1` [Example 165, (S)-4-((3-fluoropyridin-2-yl)thio)-6-(5-methyl-1-(1-(methylsulfonyl)piperidin-3-yl)-1H-pyrazol-4-yl)pyrazolo[1,5-a]pyridine-3-carbonitrile], 2 nM; in that of `CC(=O)N1CCC[C@H](n2ncc(-c3cc(Sc4ncccc4F)c4c(C#N)cnn4c3)c2C)C1` [Example 166, (S)-6-(1-(1-acetylpiperidin-3-yl)-5-methyl-1H-pyrazol-4-yl)-4-((3-fluoropyridin-2-yl)thio)pyrazolo[1,5-a]pyridine-3-carbonitrile], 2 nM. Then `Cc1c(-c2cc(Sc3ncccc3F)c3c(C#N)cnn3c2)cnn1[C@H]1CCCN(C(=O)CO)C1` [Example 167, (S)-4-((3-fluoropyridin-2-yl)thio)-6-(1-(1-(2-hydroxyacetyl)piperidin-3-yl)-5-methyl-1H-pyrazol-4-yl)pyrazolo[1,5-a]pyridine-3-carbonitrile], with 2 nM; and `Cc1c(F)ccc(Sc2cc(-c3cnn(C4CCNCC4)c3C)cn3ncc(C#N)c23)c1C#N` [Example 168], with 1 nM; and `C[C@H](O)CN1CC[C@@H](n2cc(-c3cc(Sc4ccccc4C#N)c4c(C#N)cnn4c3)cn2)C1` [Example 169, 4-(2-cyanophenyl)sulfanyl-6-[1-[(3R)-1-[(2S)-2-hydroxypropyl]pyrrolidin-3-yl]pyrazol-4-yl]pyrazolo[1,5-a]pyridine-3-carbonitrile], with 0.4 nM.

`Cc1c(-c2cc(Sc3ccccc3C#N)c3c(C#N)cnn3c2)cnn1C[C@@H]1CCCNC1` [Example 170, 4-(2-cyanophenyl)sulfanyl-6-[5-methyl-1-[[(3R)-3-piperidyl]methyl]pyrazol-4-yl]pyrazolo[1,5-a]pyridine-3-carbonitrile] had an IC50 of 72 nM. Regarding `Cc1c(-c2cc(Sc3ncccc3F)c3c(C#N)cnn3c2)cnn1C1CCC(N(C)C)CC1` (stereo not shown) [Example 171], it took 1 nM to reach half-maximal inhibition (IC50). In the case of `CCN(C)C1CCC(n2ncc(-c3cc(Sc4ncccc4F)c4c(C#N)cnn4c3)c2C)CC1` (stereo not shown) [Example 172, 6-(1-(4-(ethyl(methyl)amino)cyclo-hexyl)-5-methyl-1H-pyrazol-4-yl)-4-((3-fluoropyridin-2-yl)thio)pyrazolo[1,5-a]pyridine-3-carbonitrile] it was 1 nM. In the case of `Cc1c(-c2cc(Sc3ncccc3F)c3c(C#N)cnn3c2)cnn1C1CCC(N(C)C(=O)CN(C)C)CC1` (stereo not shown) [Example 173, N-(4-(4-(3-cyano-4-((3-fluoropyridin-2-yl)thio)pyrazolo[1,5-a]pyridin-6-yl)-5-methyl-1H-pyrazol-1-yl)cyclohexyl)-2-(dimethylamino)-N-methylacetamide] it was 1 nM; in that of `CC(=O)N1CCC([C@@H](C)n2ncc(-c3cc(Sc4ncccc4F)c4c(C#N)cnn4c3)c2C)CC1` [Example 174, (R)-6-(1-(1-(1-acetylpiperidin-4-yl)ethyl)-5-methyl-1H-pyrazol-4-yl)-4-((3-fluoropyridin-2-yl)thio)pyrazolo[1,5-a]pyridine-3-carbonitrile], 4 nM; in that of `Cc1c(-c2cc(Sc3ncccc3F)c3c(C#N)cnn3c2)cnn1[C@H]1CC[C@@]2(CCNC2)CC1` [Example 175, 4-((3-fluoropyridin-2-yl)thio)-6-(5-methyl-1-((5r,8r)-2-azaspiro[4.5]decan-8-yl)-1H-pyrazol-4-yl)pyrazolo[1,5-a]pyridine-3-carbonitrile], 1 nM. On to `CC(=O)N1CCC2(CC1)CC(n1ncc(-c3cc(Sc4ncccc4F)c4c(C#N)cnn4c3)c1C)C2` [Example 176, 6-(1-(7-acetyl-7-azaspiro[3.5]nonan-2-yl)-5-methyl-1H-pyrazol-4-yl)-4-((3-fluoropyridin-2-yl)thio)pyrazolo[1,5-a]pyridine-3-carbonitrile], for which inhibition was half-maximal at 1.5 nM (IC50).

As usually defined, the IC50 is the midpoint of a concentration-inhibition curve. High values mean lower potency, low ones higher potency.
